Measured values taken from US9968553B1, “Enalapril compositions” (Silvergate Pharmaceuticals, Inc., priority 2012, dated 2018).

Assay: Reconstitution studies in 150 mL Ora-Sweet SF syrup (visual inspection)
Assay type: physicochemical
Conditions: 150 mL Ora-Sweet SF sugar-free flavored syrup
Description: The scaled-up enalapril and mannitol powder compositions (Enalapril Powder Composition A and the like) were examined in reconstitution studies where 150 mL Ora-Sweet® SF sugar-free flavored syrup was to the powder compositions.
Reconstitution of Neat Enalapril Powder in Bottle: Due to the ‘clouding’ in the reconstitution as well as the uniformity issues in the scale-up studies of Enalapril Powder Composition A, neat enalapril, i.e., drug alone, without any excipients, was examined for scale-up bottle filling and subsequent reconstitution.

CCOC(=O)[C@H](CCc1ccccc1)N[C@@H](C)C(=O)N1CCC[C@H]1C(=O)O [neat enalapril, enalapril]
Reconstitution, visual observation of dissolution: did not dissolve
